target: T1, human PAD4 (Homo sapiens, UniProt Q9UM07); experiment: In vitro PAD4 BAEE biochemical assay; details: BAEE substrate 3 mM, 5 nM PAD4, 2 mM calcium chloride; geometric mean of multiple experiments
T1 construct: human PAD4 (NM_012387), A2-P663, was PCR amplified; His-SUMO (N, cleaved yes); made in house; host or cells: E. coli BL21(DE3)
Procedure, shortened: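 Fluorescence read-out (ex 405/em 535 nm) of isoindole formed from ammonia, o-phthalaldehyde and DTT after EDTA stop. Reaction: 5 nM PAD4, 2 mM CaCl2, 3 mM BAEE, 2 h, 25 °C, after 30 min enzyme–compound preincubation. Normalised to BB-Cl-Amidine (50 µM) and DMSO controls.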

T1 sequence (Q9UM07 2-663): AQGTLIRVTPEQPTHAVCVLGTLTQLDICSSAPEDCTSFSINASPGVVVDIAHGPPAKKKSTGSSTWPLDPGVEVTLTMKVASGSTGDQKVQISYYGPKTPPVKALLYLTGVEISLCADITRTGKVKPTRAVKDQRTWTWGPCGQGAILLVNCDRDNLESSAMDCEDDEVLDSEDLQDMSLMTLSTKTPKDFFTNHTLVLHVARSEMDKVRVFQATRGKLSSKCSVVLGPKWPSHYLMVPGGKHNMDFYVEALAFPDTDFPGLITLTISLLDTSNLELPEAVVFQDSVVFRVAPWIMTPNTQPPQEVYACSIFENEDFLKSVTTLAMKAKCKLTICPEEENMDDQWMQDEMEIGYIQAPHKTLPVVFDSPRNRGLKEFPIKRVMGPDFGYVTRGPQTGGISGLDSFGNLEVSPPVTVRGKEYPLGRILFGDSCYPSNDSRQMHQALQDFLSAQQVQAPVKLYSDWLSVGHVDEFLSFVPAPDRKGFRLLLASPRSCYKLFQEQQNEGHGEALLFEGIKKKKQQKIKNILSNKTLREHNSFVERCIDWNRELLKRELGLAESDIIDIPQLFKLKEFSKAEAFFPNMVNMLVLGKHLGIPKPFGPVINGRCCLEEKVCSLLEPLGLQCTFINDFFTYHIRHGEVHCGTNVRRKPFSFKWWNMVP

Structure (SMILES) | IC50 [nM]
COc1cc(C(=O)N[C@H]2CNCC[C@@H]2F)cc2nc(-c3cc4ccc5nc4n3CCCCCc3cccc(C)c3C(=O)N[C@@H]5C)n(C)c12 [Example 363, 2-[(2~{R})-2,6-dimethyl-4-oxo-3,16,22-triazatetracyclo[14.5.2.0^{5,10}.0^{19,23}]tricosa-1(22),5(10),6,8,17,19(23),20-heptaen-17-yl]-~{N}-[(3~{S},4~{S})-4-fluoro-3-piperidyl]-7-methoxy-1-methyl-benzimidazole-5-carboxamide] | 110
COc1cc(C(=O)N[C@H]2CNCC[C@@H]2F)cc2nc(-c3cc4ccc5nc4n3C[C@H]3[C@H](CCCC(C)(C)C(=O)N[C@@H]5C)C3(F)F)n(C)c12 (single isomer, unassigned) [Example 364, 2-[(3˜{R},5˜{S},12˜{R})-4,4-difluoro-9,9,12-trimethyl-10-oxo-1,11,20-triazatetracyclo[11.5.2.0^{3,5}.0^{16,19}]icosa-13(20),14,16(19),17-tetraen-18-yl]-˜{N}-[(3˜{S},4˜{S})-4-fluoro-3-piperidyl]-7-methoxy-1-methyl-benzimidazole-5-carboxamide] | 203
C[C@H]1NC(=O)[C@@H]2C[C@@]2(F)CC[C@@H]2C[C@@H]2Cn2c(-c3nc4cc(C(=O)N5C[C@H](N)[C@@H]6CC[C@H]5C6)cc(F)c4n3C3CC3)cc3ccc1nc32 [Example 918, (3~{S},5~{R},8~{S},10~{S}, 13~{R})-19-[5-[(1~{S), 4~{R},5~{R})-4-amino-2-azabicyclo[3.2.1]octane-2-carbonyl]-1-cyclopropyl-7-fluoro-benzimidazol-2-yl]-8-fluoro-13-methyl-1,12,21-triazapentacyclo[12.5.2.0^ {3,5}.0^{8,10}.0^{17,20}] henicosa-14(21),15, 17(20),18-tetraen-11-one] | 31
COc1cc(C(=O)N[C@H]2CNCC[C@@H]2F)cc2nc(-c3cc4ccc5nc4n3C[C@@H]3C[C@H]3CCc3ccccc3C(=O)N[C@@H]5C)n(C)c12 [Example 346, ~{N}-[(3~{S),4~{S})-4-fluoro-3-piperidyl]-7-methoxy-1-methyl-2-[(3~{R},5~{R},16~{R})-16-methyl-14-oxo-1,15,24-triazapentacyclo[15.5.2.0^{3,5}.0^{8,13}.0^ {20,23}]tetracosa-8,10,12,17(24),18,20(23),21-heptaen-22-yl]benzimidazole-5-carboxamide] | 97

Now from value to compound:

IC50 [nM] | Structure (SMILES)
53 | COc1cc(C(=O)N2CC[C@@H](OC)[C@@H](N)C2)cc2nc(-c3cc4ccc5nc4n3CCCCCc3ccc(Cl)nc3C(=O)N[C@@H]5C)n(C)c12 [Example 780, (2~{R})-17-[5-[(3~{S},4~{R})-3-amino-4-methoxy-piperidine-1-carbonyl]-7-methoxy-1-methyl-benzimidazol-2-yl]-7-chloro-2-methyl-3,6,16,22-tetrazatetracyclo[14.5.2.0^ {5,10).0^{19,23}]tricosa-1(21),5(10),6,8,17,19,22-heptaen-4-one]
39 | COc1cc(C(=O)N2CC[C@@H](OC)[C@@H](N)C2)cc2nc(-c3cc4ccc5nc4n3CCCCCC[C@](C)(c3ccccn3)C(=O)N[C@@H]5C)n(C)c12 [Example 861, (8~{R},11~{R})-17-[5-[(3~ {S},4~{R})-3-amino-4-methoxy-piperidine-1-carbonyl]-7-methoxy-1-methyl-benzimidazol-2-yl]-8,11-dimethyl-8-(2-pyridyl)-1,10,19-triazatricyclo[10.5.2.0^{15,18}] nonadeca-12(19),13,15(18), 16-tetraen-9-one]
46 | COc1cc(C(=O)N2CCC[C@@H](N)C2)cc2nc(-c3cc4ccc5nc4n3C[C@H]3C[C@@H]3COCCC(=O)N[C@@H]5C)n(C)c12 [Example 149, (3~{S},5~{S},12~{R})-18-[5-[(3~{R})-3-aminopiperidine-1-carbonyl]-7-methoxy-1-methyl-benzimidazol-2-yl]-12-methyl-7-oxa-1,11,20-triazatetracyclo[11.5.2.0^{3,5}.0^{16,19}] icosa-13(20),14,16(19),17-tetraen-10-one]

— US11976083B2, “Inhibitors of peptidylarginine deiminases” (Gilead Sciences, Inc., priority 2020, dated 2024)
